This note sets out measurements from patent US6316421A, “Pentaerythritol lipid derivatives and nuleic-acid complexes” (The Regents of the University of California, priority 2000, dated 2001).

Data set [1] in a line: Relative cytotoxicity by MTS assay (CellTiter 96) of lipoplex-treated NIH 3T3 cells. Type of data set: cell-based. The conditions noted are these: mouse, nih 3t3 cells, 1:1 lipid:DOPE, 2:1 charge ratio, FIG. 2, read-out: treated cells impaired. How it is done:
(§1) FIG. 2 is a bar graph showing luciferase transfection results as the mean (n=4) and standard deviation of total luciferase light units (RLU, left vertical axis) obtained from NIH 3T3 cells lysed after administration of […] of DNA. Relative cytotoxicity, depicted by the solid line, is plotted according to the right vertical axis, calculated as described in Example 3. With the exception of DOTAP, 1:1 cationic lipid:DOPE liposomes at a 2:1 molar charge ratio (lipid charge to DNA phosphate charge) were used for lipoplex formation. DOTAP was used without a co-lipid.
(§2) Cell viability was determined by evaluating the […] dehydrogenase activity of post-transfected cells prior to lysis using the CellTiter 96 Aqueous Non-Radioactive Cell Proliferation Assay (Promega). The tetrazolium salt solution (Owen's Reagent; […]) was added to each well and the 24 well plate was then gently agitated to ensure complete mixing. After incubation for an additional 3-4 h, each well was assayed for formazan production by removing an aliquot of the medium and diluting with 9 parts phosphate buffered saline (PBS) solution. The dilution was conducted in a 1.5 mL methylacrylate UV/VIS disposable cell, and the relative amount of formazan was determined by taking absorbance reading at 490 nm using PBS as the reference. The mean (n=4) of the absorbance values was calculated and compared to the mean absorbance value for non-transfected cells. The final results were expressed in terms of relative cytotoxicity. Relative cytotoxicity was calculated by subtracting from one the ratio of mean absorbance value for transfected cells over mean absorbance value for untreated cells. A relative cytotoxicity value of zero implies no difference from untreated cells, no measurable cytotoxicity. The maximum value of one implies total cell death for treated cells, no measurable formazan production indicating significant toxicity. Negative values may reflect enhanced formazan production as a consequence of cell growth relative to untreated cells.
(§3) To test whether (DMTM(Gly)) and (DOTM(GLY)) ameliorate lipid-induced cytotoxicity, a cell viability assay was performed. The relative cytotoxicity for these lipids and the popular transfection lipids DOTAP and DC-Chol was determined by measuring the […] dehydrogenase activity for lipoplex-treated cells. The comparative assay was performed using NIH 3T3 and 16HBE14o- cells, and the results are plotted in FIGS. 2 and 3, respectively. A requisite for evaluation of cytotoxicity is the concurrent determination of relative transfection activity. Thus, the cationic lipids were evaluated for relative cytotoxicity immediately prior to determination of luciferase activity. […]
A general note: Tetrazolium assays rely on reduction of a dye to a coloured formazan, in cell work by metabolically active cells.

In data set [2] the test system is NIH 3T3 cells. Described as above. Type of data set: cell-based. The conditions noted are these: 1:1 lipid:DOPE, 2:1 charge ratio, FIG. 2. Here is the method: as §1, §2, §3
Data set [3] has as its system NIH 3T3 and 16HBE14o- cells. The data set is described as follows: GFP reporter gene transfection (pEGFP-C1), fluorescence microscopy. Format: cell-based. The conditions noted are these: 48 h post-transfection. How it is done: (§4) Fluorescence experiments were conducted by transfecting the pEGFP-C1 C-Terminal protein fusion vector (Clontech, Palo Alto, Calif.) into NIH 3T3 and 16HBE14o- cells. The transfection protocol was identical to that of luciferase expression experiments in Example 1. Cells were grown for 48 h post-transfection, fixed with 3.7% formaldehyde, and viewed on a Zeiss ICM 405 inverted microscope with high resolution long-working distance objectives. Cells were photographed on the fluorescein channel and with phase contrast optics with a 40× water objective, using T-Max 400 (Kodak, Rochester, N.Y.) film.
(§5) To probe relationships between cellular uptake, expression, and cytotoxicity, a transfection study was conducted using the GFP reporter gene. Fluorescent microscopy of cells treated with GFP-encoded plasmid is a sensitive tool for determining the occurrence of transgene expression. […] Thus, the onset of cytotoxicity precedes gene expression.

The test system of data set [4] is NIH 3T3 and 16HBE14o- cells. Description: Phase contrast microscopy of cells transfected with GFP lipoplexes. Type of data set: cell-based. The conditions noted are these: for cell morphology by phase contrast: 48 h post-transfection, cell line not stated. Here is the method:
as §4, §5

For data set [5], the system named is NIH 3T3 cells. The data set is described as follows: Luciferase transfection (pGL3-control plasmid), NIH 3T3 cells. Type of data set: cell-based. The note with it: for facilitating the intracellular delivery of plasmid DNA: Example 2 conclusion, luciferase plasmid. How it is done: FIG. 1 is a bar graph showing the transfection activity of DMTM(Gly):DOPE liposomes as a function of the mole percent DOPE. DNA transfections were performed using NIH 3T3 cells. Lipoplexes were formulated at a 2:1 molar charge ratio (lipid charge to DNA phosphate charge). The values shown are the mean (n=4) and standard deviation of total luciferase light units (RLU) obtained from cells lysed after administration of […] DNA.
as §1
(§6) a.) Liposome Formulation.
(§7) The cationic lipid […] and DOPE […] were added as chloroform solutions to a 1.9 mL sample vial. The chloroform was evaporated using a stream of dry argon at room temperature. The resulting thin lipid films were placed under vacuum for 2-3 h to ensure that all traces of solvent were removed. Sterile water (1.0 mL) was then added to hydrate the lipid thin films, and the resultant suspension was vigorously mixed (vortex) at room temperature with occasional warming in a 60° C. water bath. The resultant 1.0 mM lipid suspension was used within 2 h of hydration.
NIH 3T3 cells were obtained from ATCC (CRL 1658) and grown in Dulbecco's Modified Eagle's Medium (DMEM; GIBCO) with 10% fetal calf serum (GIBCO) in a humidified 10% CO2 incubator at 37° C. Human bronchial epithelial cells (16HBE14o-) were cultured in Eagle's modified essential medium (MEM; GIBCO) supplemented with 10% fetal bovine serum (GIBCO), 1% glutamine (GIBCO), 1% penicillin and streptomycin (GIBCO), and grown in a 5% humidified CO2 incubator at 37° C. Both cell lines were subcultured into sterile, untreated flasks.
The NIH 3T3 cells were plated at 50,000 cells per well on a standard 24 well plate (Corning, Corning, N.Y.) 24 h prior to transfection. Cells were approximately 80% confluent at the time of transfection. The HBE cells were plated at 50,000 cells/well on a 24 well tissue culture plate coated with fibronectin, vitrogen (collagen), and bovine serum albumin as previously described (Gruenert, D. C., Basbaum C. B., and Widdicombe J. H. (1990) In Vitro Cell Dev Biol., 26, 411-418.) and were transfected as subconfluent monolayers 24 h prior to transfection. The growth media was removed via aspiration and each well was washed once with 0.5 mL buffered saline and overlaid with only MEM.
Cationic lipid-DNA complexes were prepared 15-40 mins prior to transfection. The pGL3-control vector encoding for firefly luciferase (Promega, Madison, Wis.) was. slowly added to a diluted (DMEM or MEM) quantity of the cationic lipid:DOPE suspension in a polystyrene tube. (Falcon #2058), and the lipid-DNA complex was diluted to a final volume of […]. Typically (e.g. using DOTAP), […] of the lipid suspension was used to complex […] of the plasmid DNA, yielding a 2:1 cationic lipid:DNA phosphate molar ratio. Immediately on DNA addition, the suspension was vortexed and allowed to incubate for 15 min at room temperature. A […] aliquot of the resultant lipid-DNA suspension was added to each well […]. The treated cells were then incubated for 4 h at 37° C. Control wells were treated with […] of medium without supplement. At this time, […] of the appropriate growth media including 10% FCS was added to all wells and the cells cultured for 48 h prior to lysis and analysis.
(§8) Relative luciferase activity was determined by using the Enhanced Luciferase Assay Kit and a Moonlight 2010 luminometer (Analytical Luminescence Laboratories, Sparks, Md.). […]

The next data set deals with 16HBE14o- cells. The data set is described as follows: Luciferase transfection (pGL3-control plasmid), 16HBE14o- cells. The conditions noted are these: FIG. 3. Format: cell-based, Human. How it is done: FIG. 3 is a bar graph showing luciferase transfection results as the mean (n=4) and standard deviation of total luciferase light units (RLU, left vertical axis) obtained from 16HBE14o- cells lysed after administration of […] of DNA. Relative cytotoxicity, depicted by the solid line, is plotted according to the right vertical axis, calculated as described in Example 3. With the exception of DOTAP, 1:1 cationic lipid:DOPE liposomes at a 2:1 molar charge ratio (lipid charge to DNA phosphate charge) were used for lipoplex formation. DOTAP was used without a co-lipid.
as §6, §7
NIH 3T3 cells were obtained from ATCC (CRL 1658) and grown in Dulbecco's Modified Eagle's Medium (DMEM; GIBCO) with 10% fetal calf serum (GIBCO) in a humidified 10% CO2 incubator at 37° C. Human bronchial epithelial cells (16HBE14o-) were cultured in Eagle's modified essential medium (MEM; GIBCO) supplemented with 10% fetal bovine serum (GIBCO), 1% glutamine (GIBCO), 1% penicillin and streptomycin (GIBCO), and grown in a 5% humidified CO2 incubator at 37° C. […]
Cationic lipid-DNA complexes were prepared 15-40 mins prior to transfection. The pGL3-control vector encoding for firefly luciferase (Promega, Madison, Wis.) was. slowly added to a diluted (DMEM or MEM) quantity of the cationic lipid:DOPE suspension in a polystyrene tube. […]
as §8

As for `CC(C)CCC[C@@H](C)[C@H]1CC[C@H]2[C@@H]3CC=C4C[C@@H](OC(=O)NCCN(C)C)CC[C@]4(C)[C@H]3CC[C@]12C` [DC-Chol, 3,β-(N-(N',N'-dimethylaminoethane)-carbamoyl)cholesterol, reference compound], the cytotoxicity in data set [1] was ~60%. Further, in the data set with NIH 3T3 cells [2], the “cytotoxic response (MTS relative cytotoxicity)” value is recorded as “significantly more cytotoxic”. Also, the “GFP gene transfer (presence of fluorescent cells)” value in data set [3] was “active in facilitating gene transfer”. Also, in data set [4], the “cell morphology by phase contrast” value is “dense regions of large vacuoles”. Moreover, the “vacuolization compared with DOTM(Gly), DOTAP, or DMTM(Gly)” value in data set [4] (phase contrast) is “significantly greater vacuolization”.
`CCCCCCCCCCCCCC(=O)OCC(COC(=O)CCCCCCCCCCCCC)(COC(=O)C[N+](C)(C)C)COC(=O)C[N+](C)(C)C` [DMTM(Gly), dimyristoyl bis(N,N,N-trimethylglycyl) tetraester]: the “facilitating the intracellular delivery of plasmid DNA” value with NIH 3T3 cells [5] is reported as “capable of facilitating the intracellular delivery of plasmid DNA”. Further, the “transfection activity compared with DOTAP and DC-Chol” value in the data set on NIH 3T3 cells [5] (NIH 3T3, 1:1 lipid:DOPE, FIG. 2) is “transfection activities similar to DOTAP and DC-Chol”; with 16HBE14o- cells (1:1 lipid:DOPE), “transfection activities similar to DOTAP and DC-Chol”. In addition, in the data set on NIH 3T3 cells [5] (NIH 3T3, equimolar lipid and DOPE, 2:1 molar charge ratio, FIG. 1), the “transfection activity on co-formulation with DOPE (DOPE titration)” value is listed as “near optimal transfection activity”. Also, in the data set with NIH 3T3 cells [5] (NIH 3T3, larger percentage DOPE than equimolar, FIG. 1), the “effect of larger percentage DOPE on transfection activity” value is listed as “only negligible improvement”. Further, the “cytotoxic response (MTS relative cytotoxicity)” value in the data set on NIH 3T3 cells [2] is recorded as “did not induce a cytotoxic response”.
Take `CCCCCCCC/C=C\CCCCCCCC(=O)OCC(COC(=O)CCCCCCC/C=C\CCCCCCCC)(COC(=O)C[N+](C)(C)C)COC(=O)C[N+](C)(C)C` [DOTM(Gly), dioleoyl bis (N,N,N-trimethylglycyl) tetraester]: the “lipid:DOPE optimization results compared with DMTM(Gly)” value in the data set with NIH 3T3 cells [5] (DOPE titration, compared with DMTM(Gly):DOPE) is on record as “similar”. Also, the “facilitating the intracellular delivery of plasmid DNA” value in the data set with NIH 3T3 cells [5] is “capable of facilitating the intracellular delivery of plasmid DNA”. For the same compound, the “expression in comparison to DOTAP and DC-Cholesterol” value is recorded as “reaching an order of magnitude greater expression” with NIH 3T3 cells [5] (NIH 3T3, 1:1 lipid:DOPE (DOTAP without co-lipid), FIG. 2) and “reaching an order of magnitude greater expression” in the data set on 16HBE14o- cells (1:1 lipid:DOPE (DOTAP without co-lipid)). Also, the “transfection activity compared with dimyristoyl analog” value in the data set on NIH 3T3 cells [5] (NIH 3T3, 1:1 lipid:DOPE, 2:1 charge ratio, FIG. 2) is reported as “greater transfection activity than the dimyristoyl analog”; in the data set with 16HBE14o- cells (1:1 lipid:DOPE, 2:1 charge ratio) it was “greater transfection activity than the dimyristoyl analog”. In addition, the “cytotoxic response (MTS relative cytotoxicity)” value in the data set on NIH 3T3 cells [2] is “did not induce a cytotoxic response”. Moreover, the “GFP gene transfer (presence of fluorescent cells)” value in data set [3] is “active in facilitating gene transfer”. The “cell morphology by phase contrast” value in data set [4] is “normal cellular morphology”.
